The text below walks through data of paper PMC6680932, “Structure–Antioxidant–Antiproliferative Activity Relationships of Natural C7 and C7–C8 Hydroxylated Flavones and Flavanones” (Antioxidants, 2019).

Each structure is given as a SMILES string.

One data set relates to HLMEC cultures. Nature of the data set: Stability of flavonoids in the cell cultures, HPLC. The note with it: 100 μg/mL, 3 h of incubation. It counts as in vitro ADME, human. Here is the method:
(§1) Flavonoids dissolved (as described in Section 2.4) were added to the HLMEC and MCF7 line cultures, and the final concentration was 100 μg/mL. The cultures were incubated in 96-well plates for 3 h and transferred to microtubes containing 400 µL of cold methanol (−20 °C) and kept at −20 °C for 1 h. After centrifugation at 12,000× g for 10 min, samples were analyzed by HPLC. To determine the stability of flavonoids in HLMEC and MCF7 culture media (not containing cells) under analogous conditions, control experiments were also carried out.

Another data set relates to MCF7 cultures. The data set is described as follows: Stability of flavonoids in the cell cultures, HPLC. Format: in vitro ADME, human. The following applies: 100 μg/mL, 3 h of incubation. Here is the method:
as §1

The test system of data set [1] is HLMEC (lung microvascular endothelial cells). The data set is described as follows: Antiproliferative activity in vitro, SRB assay. Format: cell-based, human. The following applies: Homo sapiens, Endothelial cell; 72 h exposure, SRB; normal cell line; read-out: IC50 ± SD HLMEC. Here is the method:
(§2) The antiproliferative studies were performed in vitro using human cancer cell lines—MV-4-11 (biphenotypic B myelomonocytic leukemia), MCF7 (breast carcinoma), LoVo (colon cancer), LoVo/DX (colon cancer doxorubicin-resistant), and DU 145 (prostate cancer)—and normal human cell lines—MCF 10A (breast cells) and HLMEC (lung microvascular endothelial cells). The cell lines MV-4-11, LoVo, DU 145, and MCF 10A were obtained from the American Type Culture Collection (Rockville, Maryland, USA), MCF7 from the European Collection of Authenticated Cell Cultures (ECACC, Salisbury, UK), LoVo/DX courtesy of Professor E. Borowski (Technical University of Gdansk, Poland), and HLMECs (which had been already immortalized by transfection with pSV3-neoplasmid containing large T-antigen gene) were the kind gift of Professor Claudine Kieda (Center for Molecular Biophysics, Orleans, France). The cell lines are being maintained in the Hirszfeld Institute of Immunology and Experimental Therapy, Polish Academy of Sciences (HIIET, PAS), Wroclaw, Poland. All cell lines were grown at 37 °C with 5% CO2 humidified atmosphere. The MV-4-11 cells were cultured in RPMI 1640 medium with GlutaMAX (Gibco, Scotland, UK), supplemented with 1 mM sodium pyruvate and 10% fetal bovine serum (both from Sigma-Aldrich, Poznan, Poland). The MCF7 cells were cultured in Eagle medium (HIIET, PAS, Wroclaw, Poland) supplemented with 2 mM L-glutamine, 10% fetal bovine serum, 1% nonessential amino acid solution, and 0.8 mg/L of insulin (all from Sigma-Aldrich, Poznan, Poland). The LoVo and LoVo/DX cells were cultured in a 1:1 (v/v) mixture of RPMI 1640 and Opti-MEM (both HIIET, PAS, Wroclaw, Poland), supplemented with 1 mM sodium pyruvate, 2 mM L-glutamine, and 5% fetal bovine serum (all from Sigma-Aldrich, Poznan, Poland). For LoVo/DX cells, additionally 10 µg/100 mL of doxorubicin (Accord Healthcare) was added to the medium. DU 145 cells were cultured in Eagle medium (HIIET, PAS, Wroclaw, Poland) supplemented with 1 mM sodium pyruvate, 4 mM L-glutamine, and 10% fetal bovine serum (all from Sigma-Aldrich, Poznan, Poland). The MCF 10A cells were cultured in the F-12 nutrient mixture (Gibco, Scotland, UK), supplemented with 5% horse serum (Gibco, Scotland, UK), 0.05 μg/mL of cholera toxin (Vibrio cholerae), 0.5 μg/mL of hydrocortisone, 10 μg/mL of insulin, and 20 ng/mL of human epidermal growth factor (all from Sigma-Aldrich, Poznan, Poland). The HLMEC cells were cultured in the RPMI 1640 medium (HIIET, PAS, Wroclaw, Poland) with the addition of 2 mM L-glutamine (Sigma-Aldrich, Poznan, Poland) and 10% fetal bovine serum (GE Healthcare). All culture media were supplemented with 100 units/mL penicillin (Polfa Tarchomin S.A., Warsaw, Poland) and 100 µg/mL streptomycin (Sigma-Aldrich, Poznan, Poland). Twenty-four hours before addition of the tested agents, the cells were plated in 96-well plates (Sarstedt, Germany) at a density of 1 × 10^4 (1 × 10^3 for HLMEC and 0.75 × 10^4 for MCF7) cells per well in 100 μL of culture medium.
(§3) Tested compounds were dissolved in DMSO and then diluted in a 1:1 (v/v) mixture of RPMI 1640 (HIIET, PAS, Wroclaw, Poland) and Opti-MEM (Gibco, Scotland, UK) medium supplemented with 2 mM L-glutamine (Sigma-Aldrich, Poznan, Poland), 5% fetal bovine serum (GE Healthcare), 100 units/mL penicillin (Polfa Tarchomin S.A., Warsaw, Poland), and 100 µg/mL streptomycin (Sigma-Aldrich, Poznan, Poland). The antiproliferative effects of the flavonoids were examined after 72 h of exposure of the cultured cells to varying concentrations of the tested agents (from 0.1 to 100 μg/mL) using the MTT (for MV-4-11 cells) or SRB assay described below. Cisplatin (chemotherapy drug used to treat a number of cancers) was used as a positive control. The results are presented as an inhibitory concentration 50 (IC50), which is the concentration of the tested agent that inhibits proliferation of the cell population by 50%. IC50 values for each experiment were calculated separately. […]

A further data set concerns MCF 10A (breast cells). Nature of the data set: Antiproliferative activity in vitro, SRB assay. It counts as cell-based, human. The note with it: Homo sapiens, MCF-10A; 72 h exposure, SRB; normal cell line; read-out: IC50 ± SD MCF 10A. Here is the method:
as §2, §3

A further data set has as its system MCF7 (breast carcinoma). Nature of the data set: Antiproliferative activity in vitro, SRB assay. It counts as cell-based, human. The following applies: Homo sapiens, MCF7; 72 h exposure, SRB; read-out: IC50 ± SD MCF7. Here is the method: as §2, §3
Another data set relates to LoVo (colon cancer). Nature of the data set: Antiproliferative activity in vitro, SRB assay. It counts as cell-based, human. The following applies: Homo sapiens, LoVo, 72 h, 72 h exposure, SRB; read-out: IC50 ± SD LoVo. Here is the method:
as §2, §3

The test system of a further data set is DU 145 (prostate cancer). Nature of the data set: Antiproliferative activity in vitro, SRB assay. Format: cell-based, human. The following applies: Homo sapiens, DU-145; 72 h exposure, SRB; read-out: IC50 ± SD DU 145.
The subject of data set [2] is MV-4-11 (biphenotypic B myelomonocytic leukemia). The data set is described as follows: Antiproliferative activity in vitro, MTT assay. The note with it: Homo sapiens, MV4-11, 72 h exposure, read-out: IC50 ± SD MV-4-11. Format: cell-based, human.
The nature of data set [3]: Stability of flavonoids in culture media without cells (control), HPLC. It counts as physicochemical. The note with it: HLMEC and MCF7 culture media not containing cells, 3 h. Here is the method:
as §1

Data set [4] relates to LoVo/DX (colon cancer doxorubicin-resistant). Nature of the data set: Antiproliferative activity in vitro, SRB assay. The note with it: Homo sapiens, LoVo/DX, 72 h exposure, read-out: IC50 ± SD LoVo/DX. It counts as cell-based, human.

In the case of `O=C1C[C@@H](c2ccc(O)cc2)Oc2cc(O)cc(O)c21` [Compound 6, naringenin], the “compound remaining after incubation in HLMEC cultures” value in the data set with HLMEC cultures is “over 98%”. Further, the “compound remaining after incubation in MCF7 cultures” value with MCF7 cultures is listed as “over 98%”. The IC50 in data set [1] was 114 ± 18.6 µM; with MCF 10A (breast cells), 185 ± 23.2 µM; with MCF7 (breast carcinoma), 215 ± 32.3 µM; in the data set on LoVo (colon cancer), 121 ± 4.3 µM; in the data set on DU 145 (prostate cancer) it was 242 ± 15.6 µM; in [2], 146 ± 19.1 µM. Further, in data set [4], the IC50 was found to be 129 ± 9.74 µM. Besides, in data set [3], the “compound remaining in culture media without cells” value is “over 98%”.
As to `O=c1cc(-c2ccc(O)cc2)oc2cc(O)cc(O)c12` [Compound 2, apigenin], the “compound remaining after incubation in HLMEC cultures” value in the data set on HLMEC cultures is recorded as “over 98%”. The “compound remaining after incubation in MCF7 cultures” value in the data set on MCF7 cultures was “over 98%”. For the same compound, the IC50 came out at 14.1 ± 0.91 µM in data set [1]; 35.7 ± 11.9 µM in the data set on MCF 10A (breast cells); 22.5 ± 1.29 µM in the data set with MCF7 (breast carcinoma); 13.8 ± 1.38 µM in the data set on LoVo (colon cancer); 28.9 ± 8.4 µM with DU 145 (prostate cancer); 8.18 ± 2.76 µM in [2]. In addition, the IC50 in data set [4] is 11.6 ± 1.35 µM. Besides, the “compound remaining in culture media without cells” value in data set [3] is on record as “over 98%”.
Consider `O=c1cc(-c2ccc(O)cc2)oc2c(O)c(O)cc(O)c12` [Compound 10, 8-hydroxyapigenin], for which the IC50 in data set [1] worked out at 122 ± 14.4 µM; in the data set with LoVo (colon cancer), 235 ± 57.1 µM.
